The record followed here is patent US12473282B2, “Biphenyl fluorine double bond derivative, preparation method therefor, and pharmaceutical application thereof” (Abbisko Therapeutics Co., Ltd., priority 2020, dated 2025).

By pEC50 is commonly meant the EC50 on a negative log10 scale, so that one unit is a factor of ten.

Each structure is given as a SMILES string. pEC50: −log10 of the molar value.

A short description of this test: Jurkat reporter gene cellular assay. The class given is cell-based. The note with it: Homo sapiens; Jurkat/NF-κB-luc/PD1 + Raji-PD-L1 coculture, OKT3 1 μg/mL, 6 hrs, activation fold; read-out: Cell Activity EC50. The procedure: The effect of compounds of the examples of the present invention and positive compounds on the interaction between PD-1 and PD-L1 expressed on cell surfaces, and the related influence on T cell functions, were determined by a Jurkat reporter gene cellular assay.
Briefly, the reporter gene plasmid of NF-κB-luc and the plasmid of human PD-1 were transfected into Jurkat cells to establish a stably transfected cell line capable of stably expressing both PD-1 and NF-κB-Luc reporter genes; the expression level of PD-1 on the cell surface was confirmed by flow cytometry; and the expression of the reporter gene was confirmed via the response of the reporter gene stimulated by OKT-3 and Raiji cells.
In addition, the plasmid of human PD-L1 was transfected into Raji cells to obtain a cell line capable of stably expressing PD-L1. Jurkat/NF-κB-luc/PD1 cells and Raji-PD-L1 cells were then cocultured and stimulated with OKT-3. On this basis, the compounds were added, and the enhancement of the signal pathway of T cell activation by the inhibitory effect of the compounds on the interaction between PD-1 and PD-L1 was evaluated by readings of reporter gene responses. The specific experimental process was as follows: • 1. 30 μL of compound or antibody solution was added to each well of a white 96-well plate (corning, 3610) at different diluted concentrations, and 10 μL of OKT3 (Biolegend, 317326) was then added (the final concentration of OKT3: 1 μg/mL); • 2. 20 μL of Raji-PD-L1 cell suspension was added to each well with 5*10^4 cells for each well, and was incubated in an incubator for 20 min; • 3. 20 μL of Jurkat/NF-Kb-luc/PD-1 cell suspension was added to each well with 5*10^4 cells for each well, and well mixed, and 6 hrs later, Bright-glo (Promega, E2620) was applied and plates were read on Envision; • 4. The reading of each well treated with the compound was compared with the reading of each well treated with DMSO to obtain the activation fold of the compound; • 5. EC50 values of compounds and positive compounds of the examples of the present invention were determined by non-linear regression analysis of activation folds at different compound concentrations.
Take `Cc1c(/C=C(\F)c2nc3c(n2C)CCNC3)cccc1-c1cccc(NC(=O)c2nc3c(n2C)CCN(CCC24CCC(C(=O)O)(CC2)C4)C3)c1C` [Example 2, (Z)-4-(2-(2-((3′-(2-fluoro-2-(1-methyl-4,5,6,7-tetrahydro-1H-imidazo [4,5-c]pyridin-2-yl)vinyl)-2,2′-dimethyl-[1,1′-biphenyl]-3-yl)carbamoyl)-1-methyl-1,4,6,7-tetrahydro-5H-imidazo[4,5-c]pyridin-5-yl)ethyl)bicyclo[2.2.1]heptane-1-carboxylic acid]: the pEC50 was 6.61.

On to `Cc1c(/C=C(\F)c2nc3c(n2C)CCN(C[C@@H](C)O)C3)cccc1-c1cccc(NC(=O)c2nc3c(n2C)CCN(CCC24CCC(C(=O)O)(CC2)C4)C3)c1C` [Example 3, (R,Z)-4-(2-(2-((3′-(2-fluoro-2-(5-(2-hydroxypropyl)-1-methyl-4,5,6,7-tetrahydro-1H-imidazo[4,5-c]pyridin-2-yl)vinyl)-2,2′-dimethyl-[1,1′-biphenyl]-3-yl)carbamoyl)-1-methyl-1,4,6,7-tetrahydro-5H-imidazo[4,5-c]pyridin-5-yl)ethyl)bicyclo[2.2.1]heptane-1-carboxylic acid], for which the pEC50 is 7.02.

For `Cc1c(/C=C(\F)c2nc3c(n2C)CCN(C(C)C)C3)cccc1-c1cccc(NC(=O)c2nc3c(n2C)CCN(CCC24CCC(C(=O)O)(CC2)C4)C3)c1Cl` [Example 4, (Z)-4-(2-(2-((2-chloro-3′-(2-fluoro-2-(5-isopropyl-1-methyl-4,5,6,7-tetrahydro-1H-imidazo[4,5-c]pyridin-2-yl)vinyl)-2′-methyl-[1,1′-biphenyl]-3-yl)carbamoyl)-1-methyl-1,4,6,7-tetrahydro-5H-imidazo [4,5-c]pyridin-5-yl)ethyl)bicyclo[2.2.1]heptane-1-carboxylic acid], the pEC50 is 6.54.

As to `Cc1c(/C=C(\F)c2nc3c(n2C)CCN(CCC24CCC(C(=O)O)(CC2)C4)C3)cccc1-c1cccc(NC(=O)c2nc3c(n2C)CCN(C(C)C)C3)c1C` [Example 5, (Z)-4-(2-(2-(1-fluoro-2-(3′-(5-isopropyl-1-methyl-4,5,6,7-tetrahydro-1H-imidazo[4,5-c]pyridine-2-carboxamido)-2,2′-dimethyl-[1,1′-biphenyl]-3-yl)vinyl)-1-methyl-1,4,6,7-tetrahydro-5H-imidazo[4,5-c]pyridin-5-yl)ethyl)bicyclo[2.2.1]heptane-1-carboxylic acid], the pEC50 is 6.14.

For `Cc1c(/C=C(\F)c2nc3c(n2C)CCN(C(C)C)C3)cccc1-c1cccc(NC(=O)c2nc3c(n2C)CCN(CC24CCC(C(=O)O)(CC2)C4)C3)c1C` [Example 6, (Z)-4-((2-((3′-(2-fluoro-2-(5-isopropyl-1-methyl-4,5,6,7-tetrahydro-1H-imidazo[4,5-c]pyridin-2-yl)vinyl)-2,2′-dimethyl-[1,1′-biphenyl]-3-yl)carbamoyl)-1-methyl-1,4,6,7-tetrahydro-5H-imidazo[4,5-c]pyridin-5-yl)methyl)bicyclo[2.2.1]heptane-1-carboxylic acid], the pEC50 was 6.01.

On to `Cc1c(/C=C(\F)c2cc(C3CC3)c(CN3CCCC[C@H]3C(=O)O)cn2)cccc1-c1cccc(NC(=O)c2nc3c(n2C)CCN(C(C)C)C3)c1C` [Example 18, (S,Z)-1-((4-cyclopropyl-6-(1-fluoro-2-(3′-(5-isopropyl-1-methyl-4,5,6,7-tetrahydro-1H-imidazo[4,5-c]pyridine-2-carboxamido)-2,2′-dimethyl-[1,1′-biphenyl]-3-yl)vinyl)pyridin-3-yl)methyl)piperidine-2-carboxylic acid], for which the pEC50 is 6.60.

Take `Cc1c(/C=C(\F)c2cc(C3CC3)c(CN3CCCC[C@H]3C(=O)O)cn2)cccc1-c1cccc(NC(=O)c2nc3c(n2C)CCN(C[C@@H](C)O)C3)c1C` [Example 19, (S)-1-((4-cyclopropyl-6-((Z)-1-fluoro-2-(3′-(5-((R)-2-hydroxypropyl)-1-methyl-4,5,6,7-tetrahydro-1H-imidazo[4,5-c]pyridine-2-carboxamido)-2,2′-dimethyl-[1,1′-biphenyl]-3-yl)vinyl)pyridin-3-yl)methyl)]: the pEC50 is 6.72.

Take `COc1cc(/C(F)=C/c2cccc(-c3cccc(NC(=O)c4nc5c(n4C)CCN(CCC46CCC(C(=O)O)(CC4)C6)C5)c3Cl)c2Cl)ncc1CN1CC(O)C1` [Example 42, (Z)-4-(2-(2-((2,2′-dichloro-3′-(2-fluoro-2-(5-((3-hydroxyazetidin-1-yl)methyl)-4-methoxypyridin-2-yl)vinyl)-[1,1′-biphenyl]-3-yl)carbamoyl)-1-methyl-1,4,6,7-tetrahydro-5H-imidazo[4,5-c]pyridin-5-yl)ethyl)bicyclo[2.2.1]heptane-1-carboxylic acid]: the pEC50 was 6.93.

Turning to `COc1cc(/C(F)=C/c2cccc(-c3cccc(NC(=O)c4nc5c(n4C)CCN(CCC46CCC(C(=O)O)(CC4)C6)C5)c3Cl)c2Cl)ncc1CNCCCO` [Example 43, (Z)-4-(2-(2-((2,2′-dichloro-3′-(2-fluoro-2-(5-(((3-hydroxypropyl)amino)methyl)-4-methoxypyridin-2-yl)vinyl)-[1,1′-biphenyl]-3-yl)carbamoyl)-1-methyl-1,4,6,7-tetrahydro-5H-imidazo[4,5-c]pyridin-5-yl)ethyl)bicyclo[2.2.1]heptane-1-carboxylic acid], the pEC50 is 6.86.

For the molecule `COc1cc(/C(F)=C/c2cccc(-c3cccc(NC(=O)c4nc5c(n4C)CCN(CCC46CCC(C(=O)O)(CC4)C6)C5)c3Cl)c2Cl)ncc1CN[C@@H](C)CO` [Example 44, (S,Z)-4-(2-(2-((2,2′-dichloro-3′-(2-fluoro-2-(5-(((1-hydroxypropan-2-yl)amino)methyl)-4-methoxypyridin-2-yl)vinyl)-[1,1′-biphenyl]-3-yl)carbamoyl)-1-methyl-1,4,6,7-tetrahydro-5H-imidazo[4,5-c]pyridin-5-yl)ethyl)bicyclo[2.2.1]heptane-1-carboxylic acid], the pEC50 is 6.98.

Regarding `COc1cc(/C(F)=C/c2cccc(-c3cccc(NC(=O)c4nc5c(n4C)CCN(CCC46CCC(C(=O)O)(CC4)C6)C5)c3Cl)c2Cl)ncc1CN[C@H]1C[C@@H](O)C1` [Example 45, 4-(2-(2-((2,2′-dichloro-3′-((Z)-2-fluoro-2-(5-((((1S,3S)-3-hydroxycyclobutyl)amino)methyl)-4-methoxypyridin-2-yl)vinyl)-[1,1′-biphenyl]-3-yl)carbamoyl)-1-methyl-1,4,6,7-tetrahydro-5H-imidazo[4,5-c]pyridin-5-yl)ethyl)bicyclo[2.2.1]heptane-1-carboxylic acid], the pEC50 is 6.94.

Take `COc1cc(/C(F)=C/c2cccc(-c3cccc(NC(=O)c4nc5c(n4C)CCN(CCC46CCC(C(=O)O)(CC4)C6)C5)c3Cl)c2Cl)ncc1CNCC(C)(C)O` [Example 46, (Z)-4-(2-(2-((2,2′-dichloro-3′-(2-fluoro-2-(5-(((2-hydroxy-2-methylpropyl)amino)methyl)-4-methoxypyridin-2-yl)vinyl)-[1,1′-biphenyl]-3-yl)carbamoyl)-1-methyl-1,4,6,7-tetrahydro-5H-imidazo[4,5-c]pyridin-5-yl)ethyl)bicyclo[2.2.1]heptane-1-carboxylic acid]: the pEC50 was 6.82.

On to `COc1cc(/C(F)=C/c2cccc(-c3cccc(NC(=O)c4nc5c(n4C)CCN(CCC46CCC(C(=O)O)(CC4)C6)C5)c3Cl)c2Cl)ncc1CNC1CC1` [Example 47, (Z)-4-(2-(2-((2,2′-dichloro-3′-(2-(5-((cyclopropylamino)methyl)-4-methoxypyridin-2-yl)-2-fluorovinyl)-[1,1′-biphenyl]-3-yl)carbamoyl)-1-methyl-1,4,6,7-tetrahydro-5H-imidazo[4,5-c]pyridin-5-yl)ethyl) bicyclo[2.2. l]heptane-1-carboxylic acid], for which the pEC50 was 6.83.

As to `COc1cc(/C(F)=C/c2cccc(-c3cccc(NC(=O)c4nc5c(n4C)CCN(CCC46CCC(C(=O)O)(CC4)C6)C5)c3Cl)c2Cl)ncc1CNC1CCC1` [Example 48, (Z)-4-(2-(2-((2,2′-dichloro-3′-(2-(5-((cyclobutylamino)methyl)-4-methoxypyridin-2-yl)-2-fluorovinyl)-[1,1′-biphenyl]-3-yl)carbamoyl)-1-methyl-1,4,6,7-tetrahydro-5H-imidazo[4,5-c]pyridin-5-yl)ethyl) bicyclo[2.2.1]heptane-1-carboxylic acid], the pEC50 is 7.09.

With `COc1cc(/C(F)=C/c2cccc(-c3cccc(NC(=O)c4nc5c(n4C)CCN(CCC46CCC(C(=O)O)(CC4)C6)C5)c3Cl)c2Cl)ncc1CNC1CCCC1` [Example 51, (Z)-4-(2-(2-((2,2′-dichloro-3′-(2-(5-((cyclopentylamino)methyl)-4-methoxypyridin-2-yl)-2-fluorovinyl)-[1,1′-biphenyl]-3-yl)carbamoyl)-1-methyl-1,4,6,7-tetrahydro-5H-imidazo[4,5-c]pyridin-5-yl)ethyl) bicyclor[2.2.1]heptane-1-carboxylic acid], the pEC50 is 7.05.
